From patent US7964607B2, “Pyrazolo[3,4-d]pyrimidine compounds” (Pfizer Inc., priority 2007, dated 2011)
Where two headings read alike, the source gives them in different places.

Target: T1, human recombinant PDE9 enzyme (Homo sapiens, UniProt O76083)
T1 construct: made in house; host or cells: SF-9 insect cells
Test: Phosphodiesterase 9 (PDE9) inhibitory activity, Scintillation Proximity (SPA) assay
Assay type: biochemical
Procedure: Phosphodiesterase 9 (PDE9) Inhibitory Activity The PDE9 assay was performed using the Phosphodiesterase Scintillation Proximity (SPA) assay (GE Healthcare Life Sciences). […] The human recombinant PDE9 enzyme was generated in SF-9 cells, the cell pellets were sonicated in buffer (20 mM TRIS, 2 mM benzamidine, 1 mM EDTA, 250 mM sucrose, 100 μM PMSF, pH 7.5 with HCl), centrifuged at 40,000×g for 20 min at 4° C. The supernatants were stored at −80° C. […] Test compounds were dissolved in DMSO, diluted in DI H2O and serially diluted in 20% DMSO/80% H2O, for a final concentration of 2% DMSO. For the assay the PDE9 was diluted with assay buffer such that 20% or less of the substrate was hydrolyzed to 5′GMP. Each assay well contained 10 μl of test compound or solvent, 40 μl of [^3H]CGMP and 50 μl of enzyme, background was determined by a high concentration of a PDE inhibitor. The assay was initiated with the addition of the enzyme and carried out at room temperature for 30 min. […] The plates were sealed, vortexed, allowed to set for >300 min, then counted in a Wallac TriLux MicroBeta LSC.

[1] = human recombinant PDE9 from SF-9 cells, 50 nM [3H]cGMP, room temperature, 30 min, additional compounds Ex. 115-228, read-out: G5678A (U):IC50
[2] = human recombinant PDE9 from SF-9 cells, 50 nM [3H]cGMP, room temperature, 30 min, Examples 3-114, read-out: G5678A (U): IC50

T1 sequence (O76083 whole entry): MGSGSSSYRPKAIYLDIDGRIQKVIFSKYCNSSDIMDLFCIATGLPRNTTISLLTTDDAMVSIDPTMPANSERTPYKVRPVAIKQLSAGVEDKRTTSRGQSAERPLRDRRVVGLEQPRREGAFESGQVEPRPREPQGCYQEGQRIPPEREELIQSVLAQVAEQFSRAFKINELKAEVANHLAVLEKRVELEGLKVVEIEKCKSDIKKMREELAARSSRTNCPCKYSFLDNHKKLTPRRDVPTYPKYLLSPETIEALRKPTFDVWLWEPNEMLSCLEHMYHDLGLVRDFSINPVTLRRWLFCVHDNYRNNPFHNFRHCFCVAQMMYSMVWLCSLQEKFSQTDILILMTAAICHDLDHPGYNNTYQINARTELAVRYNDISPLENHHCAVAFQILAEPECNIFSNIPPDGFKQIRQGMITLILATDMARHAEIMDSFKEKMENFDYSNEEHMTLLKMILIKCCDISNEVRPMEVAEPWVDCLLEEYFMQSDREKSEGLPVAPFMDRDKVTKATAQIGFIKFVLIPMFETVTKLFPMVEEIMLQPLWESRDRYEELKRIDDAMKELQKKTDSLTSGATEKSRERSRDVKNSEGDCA

| IC50 [1] [µM] | IC50 [2] [µM] | Compound | also measured |
| --- | --- | --- | --- |
| 0.0462 | – | C[C@@H]1CN(Cc2ccc(CN3CCOCC3)cc2)C[C@H]1c1nc2c(cnn2C2CCCC2)c(=O)[nH]1 (racemic) [Example 207, 1-cyclopentyl-6-{(3,4-trans)-4-methyl-1-[4-(morpholin-4-ylmethyl)benzyl]pyrrolidin-3-yl}-1,5-dihydro-4H-pyrazolo[3,4-d]pyrimidin-4-one] | – |
| 0.0157 | – | C[C@@H]1CN(Cc2cnn3c2CCCCC3)C[C@H]1c1nc2c(cnn2C2CCCC2)c(=O)[nH]1 (racemic) [Example 214, 1-cyclopentyl-6-[(3,4-trans)-4-methyl-1-(5,6,7,8-tetrahydro-4H-pyrazolo[1,5-a]azepin-3-ylmethyl)pyrrolidin-3-yl]-1,5-dihydro-4H-pyrazolo[3,4-d]pyrimidin-4-one] | – |
| 0.0404 | – | C[C@@H]1CN(Cc2ccc(F)c(F)c2)C[C@H]1c1nc2c(cnn2C2CCCC2)c(=O)[nH]1 (racemic) [Example 161, 1-cyclopentyl-6-[(3,4-trans)-1-(3,4-difluorobenzyl)-4-methylpyrrolidin-3-yl]-1,5-dihydro-4H-pyrazolo[3,4-d]pyrimidin-4-one] | – |
| – | 0.119 | C[C@@H]1CN(CCc2ccccc2)C[C@H]1c1nc2c(cnn2C2CCCC2)c(=O)[nH]1 (racemic) [Example 24, 1-cyclopentyl-6-[(3,4-trans)-4-methyl-1-(2-phenylethyl)pyrrolidin-3-yl]-1,5-dihydro-4H-pyrazolo[3,4-d]pyrimidin-4-one] | – |
| – | 0.0102 | CC(C)n1ncc2c(=O)[nH]c([C@@H]3CN(Cc4ccc5cccc(F)c5n4)C[C@H]3C)nc21 (racemic) [Example 70, 6-{(3,4-trans)-1-[(8-fluoroquinolin-2-yl)methyl]-4-methylpyrrolidin-3-yl}-1-isopropyl-1,5-dihydro-4H-pyrazolo[3,4-d]pyrimidin-4-one] | – |
| 0.0975 | – | CCOc1ccccc1CN1C[C@@H](C)[C@H](c2nc3c(cnn3C3CCCC3)c(=O)[nH]2)C1 (racemic) [Example 139, 1-cyclopentyl-6-[(3,4-trans)-1-(2-ethoxybenzyl)-4-methylpyrrolidin-3-yl]-1,5-dihydro-4H-pyrazolo[3,4-d]pyrimidin-4-one] | – |
| – | 0.0436 | Cc1nn(C2CCCC2)c2nc([C@@H]3CN(Cc4ccccc4)C[C@H]3C)[nH]c(=O)c12 (racemic) [Example 22, 6-[(3,4-trans)-1-benzyl-4-methylpyrrolidin-3-yl]-1-cyclopentyl-3-methyl-1,5-dihydro-4H-pyrazolo[3,4-d]pyrimidin-4-one] | – |
| – | 0.0245 | Cc1ncc(CN2C[C@@H](C)[C@H](c3nc4c(cnn4C4CCC4)c(=O)[nH]3)C2)cn1 (racemic) [Example 83, 1-cyclobutyl-6-{(3,4-trans)-4-methyl-1-[(2-methylpyrimidin-5-yl)methyl]pyrrolidin-3-yl}-1,5-dihydro-4H-pyrazolo[3,4-d]pyrimidin-4-one] | – |
| – | 0.0035 | COc1ccc(CN2C[C@@H](C)[C@H](c3nc4c(cnn4C4CCOCC4)c(=O)[nH]3)C2)cn1 [Example 76, 6-{(3S,4S)-1-[(6-methoxypyridin-3-yl)methyl]-4-methylpyrrolidin-3-yl}-1-(tetrahydro-2H-pyran-4-yl)-1,5-dihydro-4H-pyrazolo[3,4-d]pyrimidin-4-one] | – |
| 0.0542 | – | C[C@@H]1CN(Cc2nccs2)C[C@H]1c1nc2c(cnn2C2CCCC2)c(=O)[nH]1 (racemic) [Example 165, 1-cyclopentyl-6-[(3,4-trans)-4-methyl-1-(1,3-thiazol-2-ylmethyl)pyrrolidin-3-yl]-1,5-dihydro-4H-pyrazolo[3,4-d]pyrimidin-4-one] | – |
| – | – | C[C@@H]1CN(Cc2ccc(F)cc2)C[C@H]1c1nc2c(cnn2C2CCOCC2)c(=O)[nH]1 [Example 96, 6-[(3S,4S)-1-(4-fluorobenzyl)-4-methylpyrrolidin-3-yl]-1-(tetrahydro-2H-pyran-4-yl)-1,5-dihydro-4H-pyrazolo[3,4-d]pyrimidin-4-one] | IC50: 0.00713 µM |
| – | 0.00853 | CC[C@@H]1CN(Cc2ccc3nccnc3c2)C[C@H]1c1nc2c(cnn2C(C)C)c(=O)[nH]1 (racemic) [Example 46, 6-[(3,4-trans)-4-ethyl-1-(quinoxalin-6-ylmethyl)pyrrolidin-3-yl]-1-isopropyl-1,5-dihydro-4H-pyrazolo[3,4-d]pyrimidin-4-one] | – |
| 0.0916 | – | C[C@@H]1CN(Cc2cccc(-n3cccn3)n2)C[C@H]1c1nc2c(cnn2C2CCCC2)c(=O)[nH]1 (racemic) [Example 135, 1-cyclopentyl-6-[(3,4-trans)-4-methyl-1-{[6-(1H-pyrazol-1-yl)pyridin-2-yl]methyl}pyrrolidin-3-yl]-1,5-dihydro-4H-pyrazolo[3,4-d]pyrimidin-4-one] | – |
| – | 0.00686 | CC[C@@H]1CN(Cc2ccccc2)C[C@H]1c1nc2c(cnn2C2CCCC2)c(=O)[nH]1 (racemic) [Example 28, 6-[(3,4-trans)-1-benzyl-4-ethylpyrrolidin-3-yl]-1-cyclopentyl-1,5-dihydro-4H-pyrazolo[3,4-d]pyrimidin-4-one] | – |
| – | 0.00231 | CC[C@@H]1CN(Cc2ccc(C#N)cc2)C[C@H]1c1nc2c(cnn2C2CCOCC2)c(=O)[nH]1 [Example 114, 4-({(3S,4S)-3-ethyl-4-[4-oxo-1-(tetrahydro-2H-pyran-4-yl)-45-dihydro-1H-pyrazolo[3,4-d]pyrimidin-6-yl]pyrrolidin-1-yl}methyl)benzonitrile] | – |
| 0.0718 | – | COc1ccc(CN2C[C@@H](C)[C@H](c3nc4c(cnn4C4CCCC4)c(=O)[nH]3)C2)c(F)c1 (racemic) [Example 129, 1-cyclopentyl-6-[(3,4-trans)-1-(2-fluoro-4-methoxybenzyl)-4-methylpyrrolidin-3-yl]-1,5-dihydro-4H-pyrazolo[3,4-d]pyrimidin-4-one] | – |
| – | 0.00144 | C[C@@H]1CN(Cc2ccnc3ccccc23)C[C@H]1c1nc2c(cnn2C2CCOCC2)c(=O)[nH]1 [Example 86, 6-[(3S,4S)-4-methyl-1-(quinolin-4-ylmethyl)pyrrolidin-3-yl]-1-(tetrahydro-2H-pyran-4-yl)-1,5-dihydro-4H-pyrazolo[3,4-d]pyrimidin-4-one] | – |
| 0.0564 | – | C[C@@H]1CN(Cc2ccc3c(c2)OCCO3)C[C@H]1c1nc2c(cnn2C2CCCC2)c(=O)[nH]1 (racemic) [Example 122, 1-cyclopentyl-6-[(3,4-trans)-1-(2-3-dihydro-1,4-benzodioxin-6-ylmethyl)-4-methylpyrrolidin-3-yl]-1,5-dihydro-4H-pyrazolo[3,4-d]pyrimidin-4-one] | – |
| 0.0419 | – | Cc1ncc(CN2C[C@@H](C)[C@H](c3nc4c(cnn4C4CCCC4)c(=O)[nH]3)C2)s1 (racemic) [Example 131, 1-cyclopentyl-6-{(3,4-trans)-4-methyl-1-[(2-methyl-1,3-thiazol-5-yl)methyl]pyrrolidin-3-yl}-1,5-dihydro-4H-pyrazolo[3,4-d]pyrimidin-4-one] | – |
| 0.0789 | – | C[C@@H]1CN(Cc2cccc(Cl)c2Cl)C[C@H]1c1nc2c(cnn2C2CCCC2)c(=O)[nH]1 (racemic) [Example 164, 1-cyclopentyl-6-[(3,4-trans)-1-(2,3-dichlorobenzyl)-4-methylpyrrolidin-3-yl]-1,5-dihydro-4H-pyrazolo[3,4-d]pyrimidin-4-one] | – |
| 0.0544 | – | CCOc1cccc(CN2C[C@@H](C)[C@H](c3nc4c(cnn4C4CCCC4)c(=O)[nH]3)C2)c1 (racemic) [Example 153, 1-cyclopentyl-6-[(3,4-trans)-1-(3-ethoxybenzyl)-4-methylpyrrolidin-3-yl]-1,5-dihydro-4H-pyrazolo[3,4-d]pyrimidin-4-one] | – |
| 0.117 | – | CC(C)c1ccc(CN2C[C@@H](C)[C@H](c3nc4c(cnn4C4CCCC4)c(=O)[nH]3)C2)cc1 (racemic) [Example 169, 1-cyclopentyl-6-[(3,4-trans)-1-(4-isopropylbenzyl)-4-methylpyrrolidin-3-yl]-1,5-dihydro-4H-pyrazolo[3,4-d]pyrimidin-4-one] | – |
| – | 0.52 | O=c1[nH]c([C@@H]2CN(Cc3ccccc3)C[C@H]2CC(F)(F)F)nc2c1cnn2C1CCCC1 (racemic) [Example 62, 6-[(3,4-trans)-1-benzyl-4-(2,2,2-trifluoroethyl)pyrrolidin-3-yl]-1-cyclopentyl-1,5-dihydro-4H-pyrazolo[3,4-d]pyrimidin-4-one] | – |
| 0.0407 | – | Cc1ncc(CN2C[C@@H](C)[C@H](c3nc4c(cnn4C4CCCC4)c(=O)[nH]3)C2)cn1 (racemic) [Example 167, 1-cyclopentyl-6-{(3,4-trans)-4-methyl-1-[(2-methylpyrimidin-5-yl)methyl]pyrrolidin-3-yl}-1,5-dihydro-4H-pyrazolo[3,4-d]pyrimidin-4-one] | – |
| – | 0.00217 | O=c1[nH]c([C@@H]2CN(Cc3ccccc3)C[C@H]2C2CC2)nc2c1cnn2C1CCCC1 (racemic) [Example 29, 6-[(3,4-trans)-1-benzyl-4-cyclopropylpyrrolidin-3-yl]-1-cyclopentyl-1,5-dihydro-4H-pyrazolo[3,4-d]pyrimidin-4-one] | – |
| – | – | COc1ccc(CN2C[C@@H](C)[C@H](c3nc4c(cnn4C4CCOCC4)c(=O)[nH]3)C2)cc1 [Example 101, 6-[(3S,4S)-1-(4-methoxybenzyl)-4-methylpyrrolidin-3-yl]-1-(tetrahydro-2H-pyran-4-yl)-1,5-dihydro-4H-pyrazolo[3,4-d]pyrimidin-4-one] | IC50: 0.00794 µM |
